The source of these data is ChEMBL document CHEMBL1201862, “PubChem BioAssay data set” (2004).

Test systems include DU-145; PC-3; SW-620; Hs-578T; SNB-75; SNB-19; MDA-N; SF-295; M14; RXF 393; SK-MEL-28; UACC-257; OVCAR-8; MDA-MB-435; A498; TK-10; KM12; T47D; MCF7; OVCAR-4.
Common to all, as to assay: NCI tumour cell line growth inhibition, 48 h

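Values below derive from 48-hour exposures of cells grown in 96-well plates, with endpoints linearly interpolated between the two concentrations bracketing the appropriate inhibition level. Here, GI50 denotes the concentration required for 50% inhibition of growth.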 Active and inactive are the calls of the source. No stated cut-off is given here; in the data, active = GI50 up to about 1.1 µM and inactive = higher.

For `COC(=O)Cc1cccc2c1CCC2=O`, the GI50 in the assay with DU-145, with PC-3, in the assay on SW-620, with Hs-578T, with SNB-75 and in the assay on SNB-19 was > 100 µM (inactive) in each case. For the same compound, the GI50 in the assay with MDA-N, in the assay with SF-295, with M14, with RXF 393, in the assay with SK-MEL-28 and in the assay on UACC-257 was > 100 µM (inactive) in each case. The GI50 in the assay with OVCAR-8, with MDA-MB-435, with A498, with TK-10, in the assay on KM12 and in the assay with T47D was > 100 µM (inactive) in each case. Moreover, the GI50 in the assay with MCF7 and in the assay on OVCAR-4 was > 100 µM (inactive) throughout.
For `O=C(Nc1nc2ccccc2s1)c1cc([N+](=O)[O-])ccc1Cl`, the GI50 was 6.84 µM (inactive) in the assay on DU-145; 7.24 µM (inactive) in the assay on PC-3; 6.14 µM (inactive) in the assay on SW-620; 2.88 µM (inactive) in the assay with Hs-578T; 13.8 µM (inactive) with SNB-75; 28.4 µM (inactive) in the assay on SNB-19. For the same compound, the GI50 with MDA-N is 3.58 µM (inactive); in the assay with SF-295, 22.3 µM (inactive); with M14, 8.97 µM (inactive); in the assay with RXF 393 it was 2.65 µM (inactive); in the assay on SK-MEL-28, > 32.1 µM (inactive); in the assay on UACC-257, 42.2 µM (inactive). The GI50 was 5 µM (inactive) in the assay with OVCAR-8; 3.13 µM (inactive) with MDA-MB-435; > 81.7 µM (inactive) with A498; 66.4 µM (inactive) in the assay with TK-10; 3.29 µM (inactive) with KM12; 13.9 µM (inactive) with T47D. For the same compound, the GI50 in the assay with MCF7 is 0.91 µM (active); with OVCAR-4 it was 8.39 µM (inactive).
In the case of `O=C1c2cc(CCl)sc2C(=O)c2ccsc21`, the GI50 in the assay on DU-145 is 0.191 µM (active); in the assay with PC-3, 0.254 µM (active); in the assay with SW-620 it was 0.195 µM (active); in the assay with Hs-578T, 0.233 µM (active); in the assay on SNB-75 it was 0.192 µM (active); with SNB-19, 0.225 µM (active). For the same compound, the GI50 is 0.0183 µM (active) in the assay with MDA-N; 0.0966 µM (active) in the assay with SF-295; < 0.0187 µM (active) with M14; 0.231 µM (active) in the assay on RXF 393; 0.0634 µM (active) in the assay on SK-MEL-28; 0.181 µM (active) with UACC-257. Moreover, the GI50 is 0.215 µM (active) with OVCAR-8; 0.0187 µM (active) in the assay on MDA-MB-435; 1.63 µM (inactive) with A498; 1.95 µM (inactive) with TK-10; 1.62 µM (inactive) in the assay on KM12; 0.241 µM (active) in the assay on T47D. Moreover, the GI50 with MCF7 was 0.197 µM (active); in the assay with OVCAR-4 it was 0.184 µM (active).
Consider `Oc1ccc(/C=C/c2cc(O)cc3c2C(c2cc(O)cc(O)c2)C(c2ccc(O)c(O)c2)O3)cc1` (stereo not given), for which the GI50 in the assay on DU-145 is 35.1 µM (inactive); in the assay with PC-3, 31.3 µM (inactive); in the assay with SW-620, 39.2 µM (inactive); with Hs-578T, 26.4 µM (inactive); in the assay on SNB-75, 49.5 µM (inactive); with SNB-19, 18.6 µM (inactive). The GI50 was 18.2 µM (inactive) with MDA-N; 36.6 µM (inactive) in the assay on SF-295; 31.9 µM (inactive) in the assay with M14; 41.3 µM (inactive) with RXF 393; 25.1 µM (inactive) with SK-MEL-28; 25.3 µM (inactive) in the assay with UACC-257. Further, the GI50 in the assay on OVCAR-8 was 21.6 µM (inactive); in the assay on MDA-MB-435 it was 32.6 µM (inactive); with A498, 33.5 µM (inactive); with TK-10, 27.1 µM (inactive); in the assay with KM12 it was 25.6 µM (inactive); in the assay with T47D it was 13.1 µM (inactive). Moreover, the GI50 was 33.3 µM (inactive) in the assay on MCF7 and 16.8 µM (inactive) in the assay on OVCAR-4.
Regarding `COC(=O)CCc1cc(OC)c2c(c1)[C@H](C(=O)OC)[C@@H](c1ccc(O)c(OC)c1)O2`, the GI50 in the assay on DU-145 was > 100 µM (inactive); with PC-3, 91.8 µM (inactive); in the assay with SW-620 it was 47.4 µM (inactive); in the assay on Hs-578T it was 38.4 µM (inactive); in the assay on SNB-75 it was 43.3 µM (inactive); in the assay on SNB-19 it was 51.9 µM (inactive). The GI50 in the assay on MDA-N is 17.7 µM (inactive); in the assay with SF-295, 47.1 µM (inactive); with M14, 38.3 µM (inactive); in the assay on RXF 393, 55.8 µM (inactive); with SK-MEL-28, 41.9 µM (inactive); in the assay with UACC-257, > 100 µM (inactive). Besides, the GI50 with OVCAR-8 was 78.2 µM (inactive); with MDA-MB-435, 15.1 µM (inactive); with A498, 31.5 µM (inactive); with TK-10, > 100 µM (inactive); in the assay with KM12 it was 30.6 µM (inactive); with T47D it was 55.5 µM (inactive). The GI50 in the assay with MCF7 was 49.2 µM (inactive); with OVCAR-4 it was 84.1 µM (inactive).
Take `CN(C)c1n2c3cc([N+](=O)[O-])ccc3[n+]3c(N(C)C)n4ccccc4c3c2c2cccc[n+]12.[O-][Cl+3]([O-])([O-])[O-].[O-][Cl+3]([O-])([O-])[O-]`: the GI50 with DU-145 was > 100 µM (inactive); in the assay on PC-3, > 100 µM (inactive); in the assay with SW-620, > 100 µM (inactive); in the assay on Hs-578T, 29.9 µM (inactive); in the assay on SNB-75, > 100 µM (inactive); in the assay with SNB-19, 43.1 µM (inactive). Further, the GI50 in the assay with MDA-N, in the assay on SF-295, in the assay with M14, in the assay on RXF 393, in the assay on SK-MEL-28 and in the assay with UACC-257 was > 100 µM (inactive) each time. The GI50 with OVCAR-8 is > 100 µM (inactive); in the assay with MDA-MB-435, > 100 µM (inactive); with A498, > 100 µM (inactive); with TK-10 it was > 100 µM (inactive); in the assay with KM12 it was > 100 µM (inactive); in the assay with T47D, 73.3 µM (inactive). Moreover, the figures for the GI50 with MCF7 and with OVCAR-4 were 8.57 µM (inactive) and > 100 µM (inactive), respectively.
As for `CCOC(=O)NC(NC(C)CC)(C(F)(F)F)C(F)(F)F` (stereo not given), the GI50 was > 100 µM (inactive) in the assay with DU-145; > 100 µM (inactive) in the assay on PC-3; 42.3 µM (inactive) with SW-620; > 100 µM (inactive) in the assay with Hs-578T; > 100 µM (inactive) in the assay with SNB-75; > 100 µM (inactive) with SNB-19. For the same compound, the GI50 in the assay on MDA-N, in the assay with SF-295, in the assay on M14, with RXF 393, with SK-MEL-28 and in the assay with UACC-257 was > 100 µM (inactive) throughout. The GI50 in the assay with OVCAR-8, with MDA-MB-435, in the assay with A498, in the assay on TK-10, in the assay on KM12 and in the assay with T47D was > 100 µM (inactive) each time. Moreover, the GI50 in the assay on MCF7 and in the assay with OVCAR-4 was > 100 µM (inactive) throughout.
In the case of `NC(CNO)C(=O)O` (stereo not given), the GI50 with DU-145, in the assay with PC-3, in the assay on SW-620, in the assay on Hs-578T, with SNB-75 and with SNB-19 was > 100 µM (inactive) each time. In addition, the GI50 in the assay with MDA-N, with SF-295, with M14, with RXF 393, in the assay on SK-MEL-28 and in the assay on UACC-257 was > 100 µM (inactive) throughout. In addition, the GI50 with OVCAR-8, in the assay with MDA-MB-435, in the assay on A498, in the assay on TK-10, with KM12 and in the assay with T47D was > 100 µM (inactive) in each case. The GI50 in the assay with MCF7 and in the assay on OVCAR-4 was > 100 µM (inactive) each time.
Turning to `CC1=NNC(=S)NCCCN2CCN(CCCNC(=S)NN=C(C)C=NNC(=S)NCCCN3CCN(CCCNC(=S)NN=C1)CC3)CC2`, the GI50 with DU-145, in the assay with PC-3, with SW-620, in the assay on Hs-578T, in the assay with SNB-75 and with SNB-19 was > 100 µM (inactive) each time. Besides, the GI50 in the assay with MDA-N, in the assay with SF-295, in the assay with M14, in the assay on RXF 393, in the assay with SK-MEL-28 and with UACC-257 was > 100 µM (inactive) throughout. Besides, the GI50 with OVCAR-8, in the assay on MDA-MB-435, in the assay on A498, with TK-10, with KM12 and in the assay with T47D was > 100 µM (inactive) each time. The GI50 with MCF7 and in the assay on OVCAR-4 was > 100 µM (inactive) throughout.
Take `COc1cc(OC)c2c(=O)c(OC)c(-c3ccc4c(c3)OCO4)oc2c1`: the GI50 was 48.5 µM (inactive) with DU-145; 84.7 µM (inactive) in the assay on PC-3; > 100 µM (inactive) in the assay on SW-620; 35.1 µM (inactive) in the assay on Hs-578T; 15.9 µM (inactive) in the assay on SNB-75; 22 µM (inactive) with SNB-19. Moreover, the GI50 was > 100 µM (inactive) with MDA-N; 22.2 µM (inactive) in the assay with SF-295; > 100 µM (inactive) in the assay with M14; 28.1 µM (inactive) in the assay with RXF 393; > 100 µM (inactive) with SK-MEL-28; > 100 µM (inactive) in the assay with UACC-257. The GI50 with OVCAR-8 was 28.6 µM (inactive); with MDA-MB-435, > 100 µM (inactive); in the assay on A498 it was 15.6 µM (inactive); in the assay on TK-10 it was 45 µM (inactive); in the assay with KM12 it was > 100 µM (inactive); with T47D it was 23.1 µM (inactive). The GI50 with MCF7 and in the assay with OVCAR-4 was > 100 µM (inactive) each time.
